ChEMBL document CHEMBL5346925, “3,4-Dihydrobenzo[e][1,2,3]oxathiazine 2,2-dioxide analogs act as potential AMPA receptor potentiators with antidepressant activity” (Eur J Med Chem, 2023)
Active and inactive are the calls of the source. The rule behind the calls is not given here.

Tests used:
[1] = target: T1, Glutamate receptor ionotropic, AMPA (Rattus norvegicus) (UniProt P19491+P19492+P19493+P19490); experiment: Agonist activity at AMPA receptor in rat Primary neuron cells assessed as increase in fluorescence level at 1 uM incubated for 1 hr by calcium 2+ influx assay relative to s-AMPA coupled TAK-137; format: cell-based
[2] = target: T1, Glutamate receptor ionotropic, AMPA (Rattus norvegicus); experiment: Agonist activity at AMPA receptor in rat Primary neuron cells assessed as potentiation of s-AMPA induced calcium flux at 1 uM incubated for 1 hr by calcium 2+ influx assay relative to s-AMPA coupled TAK-137; format: cell-based; settings: filed as agonist
[3] = target: T1, Glutamate receptor ionotropic, AMPA (Rattus norvegicus); experiment: Agonist activity at AMPA receptor in rat Primary neuron cells relative to control; format: cell-based; settings: filed as agonist
[4] = Half life in Sprague-Dawley rat at 1 mg/kg, po by LC-MS/MS analysis; format: ADME, organism-based; settings: in vivo
[5] = Tmax in Sprague-Dawley rat at 0.1 mg/kg, iv by LC-MS/MS analysis; format: ADME, organism-based; settings: in vivo
[6] = Tmax in Sprague-Dawley rat at 1 mg/kg, po by LC-MS/MS analysis; format: ADME, organism-based; settings: in vivo
[7] = Cmax in Sprague-Dawley rat at 0.1 mg/kg, iv by LC-MS/MS analysis; format: ADME, organism-based; design: dose 0.1 mg/kg, route iv; settings: in vivo
[8] = Cmax in Sprague-Dawley rat at 1 mg/kg, po by LC-MS/MS analysis; format: ADME, organism-based; design: dose 1 mg/kg, route po; settings: in vivo
[9] = AUC (0 to t) in Sprague-Dawley rat at 0.1 mg/kg, iv by LC-MS/MS analysis; format: ADME, organism-based; design: dose 0.1 mg/kg, route iv; settings: in vivo
[10] = AUC (0 to infinity) in Sprague-Dawley rat at 0.1 mg/kg, iv by LC-MS/MS analysis; format: ADME, organism-based; design: dose 0.1 mg/kg, route iv; settings: in vivo
[11] = AUC (0 to infinity) in Sprague-Dawley rat at 1 mg/kg, po by LC-MS/MS analysis; format: ADME, organism-based; design: dose 1 mg/kg, route po; settings: in vivo
[12] = MRT (0 to t) in Sprague-Dawley rat at 0.1 mg/kg, iv by LC-MS/MS analysis; format: ADME, organism-based; settings: in vivo
[13] = MRT (0 to t) in Sprague-Dawley rat at 1 mg/kg, po by LC-MS/MS analysis; format: ADME, organism-based; settings: in vivo
[14] = MRT (0 to infinity) in Sprague-Dawley rat at 0.1 mg/kg, iv by LC-MS/MS analysis; format: ADME, organism-based; settings: in vivo
[15] = MRT (0 to infinity) in Sprague-Dawley rat at 1 mg/kg, po by LC-MS/MS analysis; format: ADME, organism-based; settings: in vivo
[16] = Volume of distribution at steady state in Sprague-Dawley rat at 0.1 mg/kg, iv by LC-MS/MS analysis; format: ADME, organism-based; settings: in vivo, read-out: Vdss
[17] = Clearance in Sprague-Dawley rat at 0.1 mg/kg, iv by LC-MS/MS analysis; format: ADME, organism-based; settings: in vivo
[18] = Oral bioavailability in Sprague-Dawley rat at 1 mg/kg by LC-MS/MS analysis; format: ADME, organism-based; settings: in vivo
[19] = Drug concentration in Sprague-Dawley rat plasma at 1 mg/kg, po measured after 0.50 hrs by LC-MS/MS analysis; format: ADME, organism-based
[20] = Drug concentration in Sprague-Dawley rat plasma at 1 mg/kg, po measured after 1 hr by LC-MS/MS analysis; format: ADME, organism-based
[21] = Drug concentration in Sprague-Dawley rat plasma at 1 mg/kg, po measured after 2 hr by LC-MS/MS analysis; format: ADME, organism-based
[22] = Drug concentration in Sprague-Dawley rat plasma at 1 mg/kg, po measured after 24 hr by LC-MS/MS analysis; format: ADME, organism-based
[23] = Drug concentration in Sprague-Dawley rat brain at 1 mg/kg, po measured after 0.25 hr by LC-MS/MS analysis; format: ADME, organism-based; settings: read-out: Ct
[24] = Drug concentration in Sprague-Dawley rat brain at 1 mg/kg, po measured after 0.50 hr by LC-MS/MS analysis; format: ADME, organism-based; settings: read-out: Ct
[25] = Drug concentration in Sprague-Dawley rat brain at 1 mg/kg, po measured after 1 hr by LC-MS/MS analysis; format: ADME, organism-based; settings: read-out: Ct
[26] = Drug concentration in Sprague-Dawley rat brain at 1 mg/kg, po measured after 2 hrs by LC-MS/MS analysis; format: ADME, organism-based; settings: read-out: Ct
[27] = Drug concentration in Sprague-Dawley rat brain at 1 mg/kg, po measured after 4 hrs by LC-MS/MS analysis; format: ADME, organism-based; settings: read-out: Ct
[28] = Drug concentration in Sprague-Dawley rat brain at 1 mg/kg, po measured after 8 hrs by LC-MS/MS analysis; format: ADME, organism-based; settings: read-out: Ct
[29] = Drug concentration in Sprague-Dawley rat brain at 1 mg/kg, po measured after 24 hrs by LC-MS/MS analysis; format: ADME, organism-based; settings: read-out: Ct
[30] = Ratio of drug concentration in brain to plasma in Sprague-Dawley rat at 1 mg/kg, po measured after 0.25 hrs by LC-MS/MS analysis; format: ADME, organism-based; settings: read-out: BPR
[31] = Ratio of drug concentration in brain to plasma in Sprague-Dawley rat at 1 mg/kg, po measured after 0.50 hrs by LC-MS/MS analysis; format: ADME, organism-based; settings: read-out: BPR
[32] = Ratio of drug concentration in brain to plasma in Sprague-Dawley rat at 1 mg/kg, po measured after 1 hrs by LC-MS/MS analysis; format: ADME, organism-based; settings: read-out: BPR
[33] = Ratio of drug concentration in brain to plasma in Sprague-Dawley rat at 1 mg/kg, po measured after 2 hrs by LC-MS/MS analysis; format: ADME, organism-based; settings: read-out: BPR
[34] = Ratio of drug concentration in brain to plasma in Sprague-Dawley rat at 1 mg/kg, po measured after 6 hrs by LC-MS/MS analysis; format: ADME, organism-based; settings: read-out: BPR
[35] = Ratio of drug concentration in brain to plasma in Sprague-Dawley rat at 1 mg/kg, po measured after 8 hrs by LC-MS/MS analysis; format: ADME, organism-based; settings: read-out: BPR
[36] = Ratio of drug concentration in brain to plasma in Sprague-Dawley rat at 1 mg/kg, po measured after 24 hrs by LC-MS/MS analysis; format: ADME, organism-based; settings: read-out: BPR
Mus musculus = experiment: Antidepressant activity in chronic restraint induced depressive mouse assessed as rescue in immobility time at 0.03 to 0.05 mg/kg administered for 1 day after 14th day by forced swimming test; format: functional, organism-based; settings: dose 0.03-0.05 mg/kg
[37] = Toxicity in mouse assessed as change in body weight at 0.2 to 0.4 mg/kg, ip administered once daily for 2 weeks; format: organism-based; settings: in vivo, 336 h, dose 0.2-0.4 mg/kg
[38] = Toxicity in mouse assessed as histopathological changes in lung at 0.2 to 0.4 mg/kg, ip administered once daily for 2 weeks and measured after 15 days by H and E staining based analysis; format: organism-based; settings: in vivo, 360 h, dose 0.2-0.4 mg/kg, time 15 day
[39] = Toxicity in mouse assessed as histopathological changes in liver at 0.2 to 0.4 mg/kg, ip administered once daily for 2 weeks and measured after 15 days by H and E staining based analysis; format: organism-based; settings: in vivo, 360 h, dose 0.2-0.4 mg/kg, time 15 day
[40] = Toxicity in mouse assessed as histopathological changes in kidney at 0.2 to 0.4 mg/kg, ip administered once daily for 2 weeks and measured after 15 days by H and E staining based analysis; format: organism-based; settings: in vivo, 360 h, dose 0.2-0.4 mg/kg, time 15 day
[41] = Toxicity in mouse assessed as histopathological changes in heart at 0.2 to 0.4 mg/kg, ip administered once daily for 2 weeks and measured after 15 days by H and E staining based analysis; format: organism-based; settings: in vivo, 360 h, dose 0.2-0.4 mg/kg, time 15 day

Activity [1]: -2.6%
Activity [2]: 80.2%
Emax [3]: 137%
half-life [4]: 4.84 h
Tmax [5]: 4.8 min
Tmax [6]: 0.5 h
Cmax [7]: 152 ng/mL
Cmax [8]: 142 ng/mL
AUC(0-t) [9]: 120 ng·h/mL
AUC(0-inf) [10]: 129 ng·h/mL
AUC(0-inf) [11]: 833 ng·h/mL
MRT last [12]: 1.46 h
MRT last [13]: 5.22 h
MRT inf [14]: 2.22 h
MRT inf [15]: 6.08 h
Vd [16]: 1.72 L/kg
clearance [17]: 12.9 mL/min/kg
bioavailability [18]: 67.2%
concentration at 0.5 h [19]: 142 ng/mL
concentration at 1 h [20]: 132 ng/mL
concentration at 2 h [21]: 62.3 ng/mL
concentration at 24 h [22]: 3.96 ng/mL
concentration at 0.25 h [23]: 74.7 ng/g
concentration at 0.5 h [24]: 150 ng/g
concentration at 1 h [25]: 217 ng/g
concentration at 2 h [26]: 133 ng/g
concentration at 4 h [27]: 120 ng/g
concentration at 8 h [28]: 37.2 ng/g
concentration at 24 h [29]: 6.05 ng/g
Kp at 0.25 h [30]: 0.59
Kp at 0.5 h [31]: 1.08
Kp at 1 h [32]: 1.63
Kp at 2 h [33]: 2.15
Kp at 6 h [34]: 1.73
Kp at 8 h [35]: 1.5
Kp at 24 h [36]: 1.48
Structure (SMILES): O=S1(=O)NCc2cccc(-c3ccc(-c4ccccc4F)cc3)c2O1
Activity (Mus musculus): Active
Activity [37]: Non-Toxic
Activity [38]: Non-Toxic
Activity [39]: Non-Toxic
Activity [40]: Non-Toxic
Activity [41]: Non-Toxic
